# Measurements reported in PMC6449356 (Scientific Reports, 2019).
# Where two headings read alike, the source gives them in different places.
# Tests used:
# [1] = system: cell-free extract from E. coli ATCC 25922 (coupled transcription/translation); assay: In vitro transcription/translation (IVTT) assay, E. coli extract; type: biochemical, Escherichia coli; conditions: E. coli ATCC 25922 extract; average value and range of three independent experiments
# [2] = system: cell-free extract from S. aureus ATCC 29213 (coupled transcription/translation); assay: In vitro transcription/translation (IVTT) assay, S. aureus wt extract; type: biochemical, Staphylococcus aureus; conditions: S. aureus ATCC 29213 extract, average value and range of three independent experiments
# Description: (§1) The cell-free protein synthesis reactions were carried out based on a procedure published for E. coli[37] and adapted for S. aureus as described previously for C. difficile. To improve expression from extracts derived from S. aureus, the firefly luciferase reporter gene was resynthesized with codons optimized for S. aureus at GeneArt AG (Regensburg, Germany) and cloned into plasmid pSP-luc_NF Fusion (Promega), replacing the existing luciferase gene. In addition, a 180-bp-long BglII-HindIII promoter fragment of gene abrB310 derived from Clostridium acetobutylicum was synthesized and cloned upstream of the codon-optimized luciferase gene for efficient translation, leading to plasmid pSPAbrlac-luc_Saur. S. aureus bacterial extracts were prepared according to a simplified E. coli procedure using a FastPrep®-24 instrument from Lucerna Chem AG (Cat No. 6004-500) and lysing matrix B (Lucerna Chem, Cat No. 116911100; silica spheres < 100 µm).
# (§2) Test compounds diluted in 8% DMSO were added to reaction buffer containing bacterial extract and SP6 RNA polymerase, yielding final concentrations of 100, 20, 4, 0.8, 0.16, 0.04, 0.008, 0.0016, and 0 µM. Samples were mixed and pre-incubated for 10 min at RT before 100 ng plasmid pBestluc (E. coli) or 500 ng plasmid pSPAbrlac-luc_Saur (S. aureus) was added. After mixing, the plate was incubated at RT for 90 min. The luminescence was immediately measured after addition of the luciferase substrate Bright Glo (Promega, E2610) using a Tecan SpectralFluor Plus Reader (GeniosPro) instrument (parameters: integration time 1000 ms; intensity normal). Fifty percent inhibitory concentrations (IC50s) were calculated from the data.
# [3] = system: cell-free extract from S. aureus S1 (LZD^R, homozygous G2576U in 23S rRNA); assay: In vitro transcription/translation (IVTT) assay, S. aureus S1 LZD-resistant extract; type: biochemical, Staphylococcus aureus; conditions: average value and range of three independent experiments
# Description: as §1, with “S. aureus bacterial extracts were prepared according to a simplified E. coli procedure using a FastPrep®-24 instrument from Lucerna Chem AG (Cat No. 6004-500) and lysing matrix B (Lucerna Chem, Cat No. 116911100; silica spheres < 100 µm).” left out
# as §2, with “Samples were mixed and pre-incubated for 10 min at RT before 100 ng plasmid pBestluc (E. coli) or 500 ng plasmid pSPAbrlac-luc_Saur (S. aureus) was added. After mixing, the plate was incubated at RT for 90 min.” left out
# E. coli ATCC 25922 = assay: MIC, micro dilution (CLSI); type: cell-based; conditions: Escherichia coli, ATCC25922
# Description: (§3) The MICs were determined using the micro dilution method recommended by the Clinical and Laboratory Standards Institute (CLSI).
# E. coli MG1655 tolC::kan = assay: MIC, micro dilution (CLSI); type: cell-based; conditions: Escherichia coli
# Description: as §3
# S. aureus ATCC 29213 = assay: MIC, micro dilution (CLSI); type: cell-based; conditions: Staphylococcus aureus, ATCC29213, median value of at least 3 determinations
# Description: as §3
# S. aureus S1 LZD^R = assay: MIC, micro dilution (CLSI); type: cell-based; conditions: Staphylococcus aureus
# Description: as §3
# [4] = system: S. aureus linezolid-nonsusceptible G2576U mutants (14); assay: MIC50/MIC90, broth microdilution (CLSI), strain panel; type: cell-based, Staphylococcus aureus; conditions: linezolid-nonsusceptible S. aureus G2576U mutants (14 strains)
# Source text: (§4) resistance mechanisms using broth microdilution methods (CLSI).
# (§5) Cadazolid Lin e zolid Vancom yc in
# (§6) lin e zolid-nonsusceptible (26**)
# (§7) * The 12 tested wild-type control strains include methicillin [oxacillin]-resistant [MRSA]
# (§8) strains [41.7%] from JMI Laboratories (North Liberty, Iowa).
# (§9) ** The 26 clinical strains tested included 12 cfr-positive and 14 23S rRNA mutants [G2576U].
# [5] = system: S. aureus linezolid-nonsusceptible strains carrying cfr (12); assay: as above; type: cell-based, Staphylococcus aureus; conditions: linezolid-nonsusceptible S. aureus carrying cfr (12 strains)
# Source text: as §4, §5, §6, §7, §8, §9
# [6] = system: S. aureus wild-type strains (12); assay: as above; type: cell-based, Staphylococcus aureus; conditions: wild-type S. aureus (12 strains)
# Source text: as §4, §5, §6, §7, §8, §9
# [7] = system: cell-free extracts from E. coli and from S. aureus linezolid-susceptible and -resistant strains; assay: In vitro translation in cell-free extracts, summary over the three extracts; type: biochemical; conditions: range over extracts from E. coli and S. aureus linezolid-susceptible and -resistant strains
# Description: as §1, with “S. aureus bacterial extracts were prepared according to a simplified E. coli procedure using a FastPrep®-24 instrument from Lucerna Chem AG (Cat No. 6004-500) and lysing matrix B (Lucerna Chem, Cat No. 116911100; silica spheres < 100 µm).” left out
# as §2, with “Samples were mixed and pre-incubated for 10 min at RT before 100 ng plasmid pBestluc (E. coli) or 500 ng plasmid pSPAbrlac-luc_Saur (S. aureus) was added. After mixing, the plate was incubated at RT for 90 min.” left out
Structure (SMILES),IC50 [1] [nM],IC50 [2] [nM],IC50 [3] [nM],"MIC (E. coli ATCC 25922; E. coli ATCC 25922, median value of at least 3 determinations, read-out: MIC) [µg/mL]",MIC (E. coli MG1655 tolC::kan) [µg/mL],MIC (S. aureus ATCC 29213) [µg/mL],MIC (S. aureus S1 LZD^R) [µg/mL],MIC50 [4],MIC90 [4],MIC50 [5],MIC90 [5],MIC50 [6],MIC90 [6],IC50 [7] [nM],IC50 ([2]; listed as LZD) [nM],MIC (E. coli ATCC 25922) [µg/mL]
O=C(O)c1cn(C2CC2)c2cc(N3CCC(O)(COc4ccc(N5C[C@H](CO)OC5=O)cc4F)CC3)c(F)cc2c1=O [Cadazolid],240,320,330,8,≤ 0.063,0.5,1,0.5,0.5,0.25,0.5,0.25,0.25,240 to 330,–,–
CC(=O)NC[C@H]1CN(c2ccc(N3CCOCC3)c(F)c2)C(=O)O1 [Linezolid],4030,2610,7030,–,8,2,32,8,16,8,8,1,1,–,2600,> 32
CN[C@H](CC(C)C)C(=O)N[C@H]1C(=O)N[C@@H](CC(N)=O)C(=O)N[C@H]2C(=O)N[C@H]3C(=O)N[C@H](C(=O)N[C@H](C(=O)O)c4cc(O)cc(O)c4-c4cc3ccc4O)[C@H](O)c3ccc(c(Cl)c3)Oc3cc2cc(c3O[C@@H]2O[C@H](CO)[C@@H](O)[C@H](O)[C@H]2O[C@H]2C[C@](C)(N)[C@H](O)[C@H](C)O2)Oc2ccc(cc2Cl)[C@H]1O [Vancomycin],–,–,–,–,–,–,–,1,1,0.5,1,1,1,–,–,–
